# Columns and labels:
# adult Tenebrio molitor = experiment: whole plant or invertebrate; details: in Solanum tuberosum, 24 h
# Description: Ten (10) gram pieces of potato were placed into individual jars. […] The acetone-surfactant solution comprised acetone. Triton® 152, and Triton® 172 mixed in volumetric ratio of about 785:1:3. […] Adult Tenebrio molitor and a strip of paper towel 1 cm by 3 cm were added to each jar. Mortality was rated at 1 day after treatment.
# If the actually observed value is greater than the expected value […] then there is synergism.
# [1] = system: darkling beetles (Alphitobius diaperinus); experiment: Poultry house litter treatment, darkling beetle population monitored with 9 traps; format: in vivo; details: water-dispersible granules containing 80% of compound (A), 150 g/ha; during the 10th week (end of a rearing cycle)
# Description: The treatment took place on the clean litter before the poultry was installed therein. The clean litter was essentially composed of straw.
# On the day after the treatment, a group of chicks aged 1 to 2 days was installed in the rearing house at the rate of approximately 7 animals per m^2.
# The change in the population of darkling beetles (Alphitobius diaperinus) in the litter was regularly monitored using 9 homogeneously distributed traps. Measurements were carried out each week from the second week after the treatment until rearing was halted.
# The total population of darkling beetles in the 9 traps of the treated poultry house varied between 11 and 96 until the 9th week after treatment whereas, in a similar but untreated poultry house, the population of darkling beetles (larvae and adults) oscillated between 1000 and 3000 at each counting point.
# fly larvae = details: 25 ppm of compound (A); surface of poultry dung and cow dung
# Description: An application was carried out at the surface of poultry dung and of cow dung treated beforehand with fly larvae.
SMILES,mortality at 6.25 ppm (adult Tenebrio molitor),mortality at 25 ppm (adult Tenebrio molitor),mortality at 100 ppm (adult Tenebrio molitor),mortality at 400 ppm (adult Tenebrio molitor),control of darkling beetles [1],inhibition of larval development of the flies (effectiveness with respect to untreated controls) (fly larvae)
"CNC(=O)Oc1cccc2ccccc12 [Carbaryl, 1-naphthyl methylcarbamate, reference compound]",0%,27%,80%,93%,–,–
"N#Cc1nn(-c2c(Cl)cc(C(F)(F)F)cc2Cl)c(N)c1[S+]([O-])C(F)(F)F (stereo not drawn) [compound (A), 1-[2,6-Cl2-4-CF3phenyl]-3-CN-4-[SO—CF3]-5-NH2pyrazole]",–,–,–,–,86%,100%
